Source: PMC12635268, “Novel antimicrobial peptides and peptide-microbiome crosstalk in Appalachian salamander skin” (NPJ Biofilms and Microbiomes, 2025)
Converted amounts (≈) assume the structure as drawn.

How the values were obtained:
Assay in all cases: microbe, parasite or virus in culture
A. baumannii ATCC 19606 = details: A. baumannii 19606
Outline: (§1)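 Broth microdilution MIC in cation-adjusted Mueller-Hinton broth, final inoculum 1 × 10⁵ CFU/mL. Peptides in 0.02% TFA + 0.04% BSA, 2-fold series 0.25 to 128 μg/mL, duplicate, 37 °C for 20 h without agitation. Growth imaged; MIC read visually per CLSI.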

E. coli ATCC 35218 = details: E. coli 35218
Outline: as §1

E. faecium ATCC 19434 = details: E. faecium 19434
Outline: as §1

E. faecium ATCC 49224 = details: E. faecium 49224
Outline: as §1

K. pneumoniae ATCC 13883 = details: K. pneumoniae 13883
Outline: as §1

[1] = tested on: K. pneumoniae ATCC 700603; details: K. pneumoniae 700603
Outline: as §1

P. aeruginosa ATCC 27853 = details: P. aeruginosa 27853
Outline: as §1

P. aeruginosa MRSN 5519 = details: P. aeruginosa 5519
Outline: as §1

S. aureus ATCC 25923 = details: S. aureus 25923
Outline: as §1

S. aureus ATCC 43300 = details: S. aureus 43300
Outline: as §1

P. aeruginosa PA01 = assay type: cell-based
Outline: as §1

P. aeruginosa PA01 (Si) = assay type: cell-based; details: P. aeruginosa PA01 (Si), not typical ESKAPEE strain
Description: Supplement 41522_2025_837_MOESM13_ESM.xlsx, sheet "Table_S13_ESKAPEE-MIC" | column: Bacterial MIC (µg/mL)

[2] = CAMHB, 1 × 10⁵ CFU/mL, 0.25 to 128 μg/mL, 37 °C 20 h, duplicate, read visually (CLSI)

CC[C@H](C)[C@H](NC(=O)[C@H](CCCCN)NC(=O)[C@H](CCC(=O)O)NC(=O)[C@H](CCCCN)NC(=O)[C@H](CO)NC(=O)[C@H](CCCCN)NC(=O)[C@H](CCCNC(=N)N)NC(=O)[C@H](Cc1ccccc1)NC(=O)[C@H](Cc1ccccc1)NC(=O)[C@H](CC(=O)O)NC(=O)CNC(=O)[C@H](CC(C)C)NC(=O)[C@@H](N)CC(C)C)C(=O)NCC(=O)N[C@@H](CCCCN)C(=O)N[C@@H](CCC(=O)O)C(=O)N[C@@H](Cc1ccccc1)C(=O)N[C@@H](CCCCN)C(=O)N[C@@H](CCCNC(=N)N)C(=O)N[C@H](C(=O)N[C@H](C(=O)N[C@@H](CCC(N)=O)C(=O)N[C@@H](CCCNC(=N)N)C(=O)N[C@H](C(=O)N[C@@H](CCCCN)C(=O)N[C@@H](CC(=O)O)C(=O)N[C@@H](Cc1ccccc1)C(=O)N[C@@H](CC(C)C)C(=O)N[C@@H](CCCNC(=N)N)C(=O)N[C@@H](CC(N)=O)C(=O)N[C@@H](CC(C)C)C(=O)N[C@H](C(=O)N1CCC[C@H]1C(=O)N[C@@H](CCCNC(=N)N)C(=O)N[C@H](C(=O)N[C@@H](CCC(=O)O)C(=O)N[C@@H](CO)C(=O)O)[C@@H](C)O)C(C)C)[C@@H](C)CC)C(C)C)[C@@H](C)CC [LL-37, reference compound]
MIC (A. baumannii ATCC 19606; [2]): 2 µg/mL (≈ 0.445 µM)
Bacterial MIC (A. baumannii ATCC 19606; Week 1 (12/6/2023)): 2 µg/mL
MIC (E. coli ATCC 35218; [2]): 8 µg/mL (≈ 1.78 µM)
Bacterial MIC (E. coli ATCC 35218; Week 2 (12/14/2023)): 8 µg/mL
MIC (E. faecium ATCC 19434; [2]): 32 µg/mL (≈ 7.12 µM)
Bacterial MIC (E. faecium ATCC 19434; Week 1 (12/6/2023)): 32 µg/mL
Bacterial MIC (E. faecium ATCC 19434; Week 2 (12/14/2023)): 64 µg/mL
MIC (E. faecium ATCC 49224; [2]): 32 µg/mL (≈ 7.12 µM)
Bacterial MIC (E. faecium ATCC 49224; Week 1 (12/6/2023)): 32 µg/mL
Bacterial MIC (E. faecium ATCC 49224; Week 2 (12/14/2023)): 64 µg/mL
MIC (K. pneumoniae ATCC 13883; [2]): 4 µg/mL (≈ 0.89 µM)
Bacterial MIC (K. pneumoniae ATCC 13883; Week 1 (12/6/2023)): 4 µg/mL
Bacterial MIC (K. pneumoniae ATCC 13883; Week 2 (12/14/2023)): 8 µg/mL
MIC [1, 2]: 32 µg/mL (≈ 7.12 µM)
Bacterial MIC ([1]; Week 1 (12/6/2023)): 32 µg/mL
MIC (P. aeruginosa ATCC 27853; [2]): 8 µg/mL (≈ 1.78 µM)
Bacterial MIC (P. aeruginosa ATCC 27853; Week 1 (12/6/2023)): 8 µg/mL
Bacterial MIC (P. aeruginosa ATCC 27853; Week 2 (12/14/2023)): 8 µg/mL
MIC (P. aeruginosa MRSN 5519; [2]): 16 µg/mL (≈ 3.56 µM)
Bacterial MIC (P. aeruginosa MRSN 5519; Week 1 (12/6/2023)): 16 µg/mL
Bacterial MIC (P. aeruginosa MRSN 5519; Week 2 (12/14/2023)): 16 µg/mL
MIC (S. aureus ATCC 25923; [2]): >128 µg/mL
Bacterial MIC (S. aureus ATCC 25923; Week 1 (12/6/2023)): >128.000 µg/mL
Bacterial MIC (S. aureus ATCC 25923; Week 2 (12/14/2023)): >128.000 µg/mL
MIC (S. aureus ATCC 43300; [2]): >128 µg/mL
Bacterial MIC (S. aureus ATCC 43300; Week 1 (12/6/2023)): >128.000 µg/mL
Bacterial MIC (S. aureus ATCC 43300; Week 2 (12/14/2023)): >128.000 µg/mL
Bacterial MIC (P. aeruginosa PA01; P. aeruginosa 15692 (PAO1), Week 2 (12/14/2023)): 16 µg/mL
MIC (P. aeruginosa PA01; P. aeruginosa PA01, CAMHB, 1 × 10⁵ CFU/mL, 0.25 to 128 μg/mL, 37 °C 20 h, duplicate, read visually (CLSI)): 4 µg/mL (≈ 0.89 µM)
Bacterial MIC (P. aeruginosa PA01 (Si); Week 1 (12/6/2023)): 4 µg/mL
Bacterial MIC (P. aeruginosa PA01 (Si); Week 2 (12/14/2023)): 4 to 8 µg/mL
